In patent US11952364B2, “TRK inhibitors useful as anticancer drugs” (TYLIGAND BIOSCIENCE (SHANGHAI) LIMITED, priority 2018, dated 2024):
Read-outs that look alike come from different tables or passages of the source. Values belong to the molecule of their own block, whether it stands above or below them.

Test system: Ba/F3 ETV6-NTRK3-G696C cells
Experiment: Proliferation of Ba/F3 ETV6-NTRK3-G696C cells (CellTiter-Glo)
Format: cell-based, mouse
Text: Ba/F3 ETV6-NTRK3-G696C is a stable transgenic cell line constructed by KYinno Biotechnology Co., Ltd. on mouse primary B cell Ba/F3 wherein NTRK3 is highly expressed with a mutation of G at position […] to C and fused with ETV6 to form ETV6-NTRK3. • [Test method]: Promega's CellTiter-Glo® Luminescent Cell Viability Assay kit was used to evaluate the inhibitory activity of the compounds on the proliferation of Ba/F3 ETV6-NTRK3-G696C cells. • [Instrument]: Spectramax M3 multifunctional microplate reader from Molecular Devices. • [Test materials]: Ba/F3 ETV6-NTRK3-G696C cell line (constructed by KYinno Biotechnology Co., Ltd. (Beijing)), 96-well transparent flat-bottomed black-walled cell culture plate (Corning, cat #3603), RPMI-1640 media (GE, product number #SH30027.01), fetal bovine serum FBS (Thermo Fisher, cat #10099-141), CellTiter-Glo® Luminescent Cell Viability Assay kit (Promega, cat #G7572), PBS (Solarbio, cat #P1020), DMSO (Sigma, cat #D2650). • [Experimental procedure]: When resuscitating Ba/F3 ETV6-NTRK3-G696C cells, • the freezing tube was quickly shaken in a 37° C. water bath to melt within 1 minute. The thawed cell suspension was mixed uniformly with RPMI1640 medium containing 10% FBS, centrifuged at 1000 rpm for 5 minutes, and the supernatant discarded. 5 mL of complete medium (RPMI1640 medium with 10% FBS) was taken to resuspend the cell pellets, charged into a cell culture flask with a bottom area of 25 cm^2, and incubated in a cell incubator at 37° C., 95% humidity and 5% CO2. Cells were allowed to passage when the number of cells reached about 10^6 cells/mL. For cell passage, the old cell suspension was directly pipetted evenly, 1/5 of the cell suspension was kept, 4 mL of new complete medium was added, after pipetting evenly, the cell flask was placed in the cell incubator for further culturing. Cell plating was performed when the number of cells reached about 10^6 cells/mL again. For cell plating, 1/5 of the cell suspension was kept for further culturing as in the cell passage method, and the remaining 4/5 of the cell suspension was placed in a 15 mL centrifuge tube, detected for cell viability by Trypan blue exclusion method to ensure that cell viability was above 90%. A cell suspension with a density of 5.56×10^4 viable cells/mL was prepared with complete medium, and 90 μL of such cell suspension was added to a 96-well cell culture plate to obtain the cell density of 5000 viable cells/mL in the cell culture plate. A control group containing no cells, no compound and only complete medium (i.e. culture medium control) and a control group containing no compound but containing cells (i.e. cell control) were set. The cell plate was placed in a cell incubator overnight. The 10 mM compound stock solution in DMSO was first serially diluted with DMSO at a dilution factor of 3.16 times, to obtain 9 concentrations, and the 10th concentration was set as DMSO control without compound. Then, PBS was used to dilute the DMSO solutions of compounds of different concentrations, at a dilution factor of 100 times, so that the DMSO concentration in the compound solution of each concentration was 1%. Finally, 10 μL of each of the above solutions was added to the corresponding cell culture plate, so that the initial compound concentration was 10 μM, with the remaining concentrations being successively diluted at a dilution factor of 3.16 times, and the DMSO content in the cell culture plate was 0.1%. The cell plate was placed in a cell incubator and cultured for 72 hours. For endpoint detection, the CellTiter-Glo reagent was melted, and the cell plate was moved to room temperature to equilibrate for 30 minutes, added with 100 μL of CellTiter-Glo for each well, and shaken on an orbital shaker for 5 minutes to fully lyse the cells. […]

[1] = Mus musculus, BaF3, 72 h, Table 7, 72 hours, read-out: Ba/F3 ETV6-NTRK3-G696C, IC50
[2] = Mus musculus, BaF3, Table 7-2, separate test, read-out: Ba/F3 ETV6-NTRK3-G696C, IC50
[3] = Mus musculus, BaF3, Table 9, read-out: Ba/F3 ETV6-NTRK3-G696C cell proliferation inhibitory activity (IC50)
[4] = Mus musculus, BaF3, Table 7-1, separate test, read-out: Ba/F3 ETV6-NTRK3-G696C, IC50

SMILES: O=C(Nc1cnn2ccc(N3CCC[C@@H]3c3cc(F)ccc3F)nc12)N1CC[C@H](O)C1 [LOXO-101, Larotrectinib, reference compound]
IC50 [1]: 1890 nM

SMILES: CCn1ncc2cc(Oc3ccc(NC(=O)c4ccc(C)n(-c5ccc(F)cc5)c4=O)cc3F)c(-c3cn[nH]c3)cc21 [Example 3, N-(3-fluoro-4-(1-ethyl-6-(1H-pyrazol-4-yl)-1H-indazol-5-yloxy)phenyl)-1-(4-fluorophenyl)-6-methyl-2-oxo-1,2-dihydmpyridine-3-carboxamide]
IC50 [1]: 18 nM

SMILES: Cn1ncc2cc(Oc3ccc(NC(=O)c4ccc(C(F)(F)F)n(-c5ccc(F)cc5)c4=O)cc3F)c(-c3cn[nH]c3)cc21 [Example 1, N-(3-fluoro-4-(1-methyl-6-(1H-pyrazol-4-yl)-1H-indazol-5-yloxy)phenyl)-1-(4-fluorophenyl)-6-trifluoromethyl-2-oxo-1,2-dihydmpyridine-3-carboxamide monomethanesulfonate]
IC50 [1]: 33 nM

SMILES: Cn1ncc2cc(Oc3ccc(NC(=O)c4ccc(OC5CC5)n(-c5ccc(F)cc5)c4=O)cc3F)c(-c3cn[nH]c3)cc21 [Example 15, N-(3-fluoro-4-(1-methyl-6-(1H-pyrazol-4-yl)-1H-indazol-5-yloxy)phenyl)-1-(4-fluorophenyl)-6-cyclopropoxy-2-oxo-1,2-dihydropyridine-3-carboxamide]
IC50 [2]: 1.9 nM

SMILES: CCOc1ccc(C(=O)Nc2ccc(Oc3cc4cnn(C)c4cc3-c3cn[nH]c3)c(F)c2)c(=O)n1-c1ccc(F)cc1 [Example 14, N-(3-fluoro-4-(1-methyl-6-(1H-pyrazol-4-yl)-1H-indazol-5-yloxy)phenyl)-1-(4-fluorophenyl)-6-ethoxy-2-oxo-12-dihydropyridine-3-carboxamide]
IC50 [2]: 1.6 nM

SMILES: CC(C)c1ccc(C(=O)Nc2ccc(Oc3cc4cnn(C)c4cc3-c3cn[nH]c3)c(F)c2)c(=O)n1-c1ccc(F)cc1 [Example 6, N-(3-fluoro-4-(1-methyl-6-(1H-pyrazol-4-yl)-1H-indazol-5-yloxy)phenyl)-1-(4-fluorophenyl)-6-isopropyl-2-oxo-1,2-dihydropyridine-3-carboxamide]
IC50 [1]: 16 nM

SMILES: Cn1ncc2cc(Oc3ccc(NC(=O)c4ccc(C5CC5)n(-c5ccc(F)cc5)c4=O)cc3F)c(-c3cn[nH]c3)cc21 [Example 2, N-(3-fluoro-4-(1-methyl-6-(1H-pyrazol-4-yl)-1H-indazol-5-yloxy)phenyl)-1-(4-fluorophenyl)-6-cyclopropyl-2-oxo-1,2-dihydmpyridine-3-carboxamide]
IC50 [1]: 20 nM

SMILES: Cc1ccc(C(=O)Nc2ccc(Oc3cc4cnn(C)c4cc3-c3cn[nH]c3)c(F)c2)c(=O)n1-c1ccc(F)cc1 [Merestinib, reference compound]
IC50 [1]: 10 nM | IC50 [4]: 13 nM | IC50 [2]: 1.7 nM

SMILES: CCn1ncc2cc(Oc3ccc(NC(=O)c4ccc(OC)n(-c5ccc(F)cc5)c4=O)cc3F)c(-c3cn[nH]c3)cc21 [Example 23, N-(3-fluoro-4-(1-ethyl-6-(1H-pyrazol-4-yl)-1H-indazol-5-yloxy)phenyl)-1-(4-fluorophenyl)-6-methoxy-2-oxo-1,2-dihydropyridine-3-carboxamide]
IC50 [4]: 11 nM

SMILES: CSc1ccc(C(=O)Nc2ccc(Oc3cc4cnn(C)c4cc3-c3cn[nH]c3)c(F)c2)c(=O)n1-c1ccc(F)cc1 [Example 11, N-(3-fluoro-4-(1-methyl-6-(1H-pyrazol-4-yl)-1H-indazol-5-yloxy)phenyl)-1-(4-fluorophenyl)-6-methylthio-2-oxo-1,2-dihydropyidine-3-carboxamide]
IC50 [2]: 1.8 nM

SMILES: CCOc1ccc(C(=O)Nc2ccc(Oc3cc4cnn(CC)c4cc3-c3cn[nH]c3)c(F)c2)c(=O)n1-c1ccc(F)cc1 [Example 24, N-(3-fluoro-4-(1-ethyl-6-(1H-pyrazol-4-yl)-1H-indazol-5-yloxy)phenyl)-1-(4-fluorophenyl)-6-ethoxy-2-oxo-12-dihydropyridine-3-carboxamide]
IC50 (Table 7-2, separate test, read-out: Ba/F3 ETV6-NTRK3-G696C, IC50): 3.5 nM

SMILES: CCc1ccc(C(=O)Nc2ccc(Oc3cc4cnn(CC)c4cc3-c3cn[nH]c3)c(F)c2)c(=O)n1-c1ccc(F)cc1 [Example 18, N-(3-fluoro-4-(1-ethyl-6-(1H-pyrazol-4-yl)-1H-indazol-5-yloxy)phenyl)-1-(4-fluorophenyl)-6-ethyl-2-oxo-1,2-dihydropyridine-3-carboxamide]
IC50 [4]: 12 nM

SMILES: CCc1ccc(C(=O)Nc2ccc(Oc3cc4cnn(C)c4cc3-c3cn[nH]c3)c(F)c2)c(=O)n1-c1ccc(F)cc1 [Example 5, N-(3-fluoro-4-(1-methyl-6-(1H-pyrazol-4-yl)-1H-indazol-5-yloxy)phenyl)-1-(4-fluorophenyl)-6-ethyl-2-oxo-1,2-dihydropyridine-3-carboxamide]
IC50 [1]: 6.8 nM

The remaining lines, values ahead:

IC50 [2]: 3.1 nM
SMILES: CCn1ncc2cc(Oc3ccc(NC(=O)c4ccc(OC(C)C)n(-c5ccc(F)cc5)c4=O)cc3F)c(-c3cn[nH]c3)cc21 [Example 26, N-(3-fluoro-4-(1-ethyl-6-(1H-pyrazol-4-yl)-1H-indazol-5-yloxy)phenyl)-1-(4-fluorophenyl)-6-isopropoxy-2-oxo-1,2-dihydropyridine-3-carboxamide]

IC50 [1]: 34 nM
SMILES: Cc1ccc(C(=O)Nc2ccc(Oc3cc4cnn(C(C)C)c4cc3-c3cn[nH]c3)c(F)c2)c(=O)n1-c1ccc(F)cc1 [Example 4, N-(3-fluoro-4-(1-isopropyl-6-(1H-pyrazol-4-yl)-1H-indazol-5-yloxy)phenyl)-1-(4-fluorophenyl)-6-methyl-2-oxo-1,2-dihydmpyridine-3-carboxamide]

IC50 [3]: 5.3 nM
SMILES: Cc1ccc(C(=O)Nc2ccc(Oc3cc4cnn5c4c(c3-c3cn[nH]c3)CC5)c(F)c2)c(=O)n1-c1ccc(F)cc1 [Example 31, N-(4-((5-(1H-pyrazol-4-yl)-6,7-dihydropyrrolo[3,2,1-hi]-indazol-4-yl)oxy)-3-fluorophenyl)-1-(4-fluorophenyl)-6-methyl-2-oxo-1,2-dihydropyridine-3-carboxamide]

IC50 [3]: 4.7 nM
SMILES: CCOc1ccc(C(=O)Nc2ccc(Oc3cc4cnn5c4c(c3-c3cn[nH]c3)CC5)c(F)c2)c(=O)n1-c1ccc(F)cc1 [Example 32, N-(4-((5-(1H-pyrazol-4-yl)-6,7-dihydropyrrolo[3,2,1-hi]-indazol-4-yl)oxy)-3-fluorophenyl)-6-ethoxy-1-(4-fluorophenyl)-2-oxo-12-dihydropyridine-3-carboxamide]

IC50 [3]: 4.8 nM
SMILES: CC(C)Oc1ccc(C(=O)Nc2ccc(Oc3cc4cnn5c4c(c3-c3cn[nH]c3)CC5)c(F)c2)c(=O)n1-c1ccc(F)cc1 [Example 34, N-(4-((5-(1H-pyrazol-4-yl)-6,7-dihydropyrrolo[3,2,1-hi]-indazol-4-yl)oxy)-3-fluorophenyl)-1-(4-fluorophenyl)-6-isopropoxy-2-oxo-12-dihydropyrndine-3-carboxamide]

IC50 [4]: 3 nM
SMILES: COc1ccc(C(=O)Nc2ccc(Oc3cc4cnn(C)c4cc3-c3cn[nH]c3)c(F)c2)c(=O)n1-c1ccc(F)cc1 [Example 12, N-(3-fluoro-4-(1-methyl-6-(1H-pyrazol-4-yl)-1H-indazol-5-yloxy)phenyl)-1-(4-fluorophenyl)-6-methoxy-2-oxo-1,2-dihydropyridine-3-carboxamide]

IC50 [3]: 3.6 nM
SMILES: COc1ccc(C(=O)Nc2ccc(Oc3cc4cnn5c4c(c3-c3cn[nH]c3)CC5)c(F)c2)c(=O)n1-c1ccc(F)cc1 [Example 28, N-(4-((5-(1H-pyrazol-4-yl)-6,7-dihydropyrrolo[3,2,1-hi]-indazol-4-yl)oxy)-3-fluorophenyl)-1-(4-fluorophenyl)-6-methoxy-2-oxo-1,2-dihydropyidine-3-carboxamide]
